Test results taken from PubChem BioAssay (NCI).
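Values below derive from 48-hour exposures of cells grown in 96-well plates, with endpoints linearly interpolated between the two concentrations bracketing the appropriate inhibition level. GI50 marks 50% less growth. At the TGI there is no net growth.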

Columns and labels:
Assay in all cases: DTP human tumour cell line panel, 48 h
M19-MEL melanoma = test system: M19-MEL melanoma
DMS 273 small cell lung = test system: DMS 273 small cell lung
KM20L2 colon = test system: KM20L2 colon
DMS 114 small cell lung = test system: DMS 114 small cell lung
SNB-78 CNS = test system: SNB-78 CNS
HOP-18 NSCLC = test system: HOP-18 NSCLC
DLD-1 colon = test system: DLD-1 colon
RXF-631 renal = test system: RXF-631 renal
XF 498 CNS = test system: XF 498 CNS

In the case of CC(Sc1ccccc1)C(CO)(CO)[N+](=O)[O-] (stereo not given), the TGI (M19-MEL melanoma) is reported as 30.9 µM, the TGI (DMS 273 small cell lung) is reported as greater than 100 µM and the TGI (KM20L2 colon) is reported as 31.7 µM. It also gave a TGI (DMS 114 small cell lung) of 32.5 µM, a TGI (SNB-78 CNS) of 66.7 µM and a TGI (HOP-18 NSCLC) of 45.6 µM. The TGI (DLD-1 colon) was 29 µM.
COC(=O)C1C(C)N1C (stereo not given) gave a TGI (M19-MEL melanoma) greater than 100 µM, a TGI (DMS 273 small cell lung) greater than 100 µM and a TGI (DMS 114 small cell lung) greater than 100 µM. It also gave a TGI (SNB-78 CNS) greater than 100 µM, a TGI (RXF-631 renal) greater than 100 µM and a TGI (DLD-1 colon) greater than 100 µM. The TGI (XF 498 CNS) was greater than 100 µM.
With CC(=O)N(C)c1ccc2c(ccc[n+]2[O-])c1[N+](=O)[O-] the TGI (M19-MEL melanoma) was greater than 100 µM, the TGI (DMS 273 small cell lung) was greater than 100 µM and the TGI (KM20L2 colon) was greater than 100 µM. The TGI (DMS 114 small cell lung) was greater than 100 µM, the TGI (SNB-78 CNS) was greater than 100 µM and the TGI (HOP-18 NSCLC) was greater than 100 µM. The TGI (RXF-631 renal) was greater than 100 µM, the TGI (DLD-1 colon) was greater than 100 µM and the TGI (XF 498 CNS) was greater than 100 µM.
Nc1ccc2c(c1)C(=O)N(O)C2=O was tested, and the TGI (M19-MEL melanoma) was greater than 100 µM, the TGI (KM20L2 colon) was greater than 100 µM and the TGI (DMS 114 small cell lung) was greater than 100 µM. The TGI (SNB-78 CNS) was greater than 100 µM, the TGI (DLD-1 colon) was greater than 100 µM and the TGI (XF 498 CNS) was greater than 100 µM.
CCOC(=O)C1CCn2c(nc3c2c(=O)n(C)c(=O)n3C)S1 (stereo not given) showed a TGI (DMS 273 small cell lung) greater than 100 µM, a TGI (KM20L2 colon) greater than 100 µM and a TGI (SNB-78 CNS) greater than 100 µM. The TGI (HOP-18 NSCLC) was greater than 100 µM and the TGI (DLD-1 colon) was greater than 100 µM.
C/C(=N\NC(=O)c1cccnc1)c1cccc(/C(C)=N/NC(=O)c2cccnc2)n1 was tested, and the TGI (M19-MEL melanoma) was 68.6 µM, the GI50 (DMS 273 small cell lung) was 5.02 µM and the TGI (DMS 273 small cell lung) was 25.5 µM. It also gave a TGI (KM20L2 colon) greater than 100 µM, a GI50 (DMS 114 small cell lung) of 2.7 µM and a TGI (DMS 114 small cell lung) of 15.9 µM. For the same compound, the GI50 (SNB-78 CNS) was 7.53 µM, the TGI (SNB-78 CNS) was 97.9 µM and the GI50 (HOP-18 NSCLC) was 1.06 µM. For the same compound, the TGI (HOP-18 NSCLC) was 6.15 µM and the TGI (DLD-1 colon) was greater than 100 µM.
